Assay results published in paper PMC4724238 (Biochemical and biophysical research communications, 2015).

Experiments:
Test in all cases: reduction to DABS-Met, […] min
Type in all cases: biochemical
Conditions in all cases: no activator
hMsrB3 = biological target: T1, hMsrB3 (Homo sapiens, UniProt Q8IXL7)
T1 sequence (Q8IXL7 1-192 limits assumed): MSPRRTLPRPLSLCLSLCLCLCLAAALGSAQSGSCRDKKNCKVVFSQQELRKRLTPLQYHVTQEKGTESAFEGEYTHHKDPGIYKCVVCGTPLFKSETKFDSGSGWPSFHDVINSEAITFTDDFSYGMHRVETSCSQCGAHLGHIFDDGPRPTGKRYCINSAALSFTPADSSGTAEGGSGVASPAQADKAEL

hMsrB2 = hMsrB2 (Homo sapiens, UniProt Q9Y3D2)
eMsrB = biological target: T2, eMsrB (Escherichia coli, UniProt P0A746)
T2 sequence (P0A746 2-137): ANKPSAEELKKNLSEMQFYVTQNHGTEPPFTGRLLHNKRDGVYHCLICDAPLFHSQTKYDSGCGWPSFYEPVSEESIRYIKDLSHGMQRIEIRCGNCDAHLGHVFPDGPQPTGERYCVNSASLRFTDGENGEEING

eMsrA = biological target: T3, eMsrA (Escherichia coli, UniProt P0A744)
T3 sequence (P0A744 2-212): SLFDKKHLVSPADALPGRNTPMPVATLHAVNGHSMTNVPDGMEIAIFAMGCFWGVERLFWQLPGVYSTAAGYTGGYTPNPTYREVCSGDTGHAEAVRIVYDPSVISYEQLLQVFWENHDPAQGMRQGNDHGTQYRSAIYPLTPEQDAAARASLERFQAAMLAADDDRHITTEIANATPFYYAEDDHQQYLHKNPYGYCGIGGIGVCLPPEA

bMsrA = biological target: T4, bMsrA (Bos taurus, UniProt P54149)
T4 sequence (P54149 1-233 limits assumed): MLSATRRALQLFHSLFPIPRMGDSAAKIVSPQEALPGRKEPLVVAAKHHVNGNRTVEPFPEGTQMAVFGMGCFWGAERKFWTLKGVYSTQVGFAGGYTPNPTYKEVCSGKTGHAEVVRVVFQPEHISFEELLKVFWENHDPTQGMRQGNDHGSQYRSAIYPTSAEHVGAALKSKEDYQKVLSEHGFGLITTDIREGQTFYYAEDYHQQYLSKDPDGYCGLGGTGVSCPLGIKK

hMsrA = biological target: T5, hMsrA (Homo sapiens, UniProt Q9UJ68)
T5 sequence (Q9UJ68 23-235): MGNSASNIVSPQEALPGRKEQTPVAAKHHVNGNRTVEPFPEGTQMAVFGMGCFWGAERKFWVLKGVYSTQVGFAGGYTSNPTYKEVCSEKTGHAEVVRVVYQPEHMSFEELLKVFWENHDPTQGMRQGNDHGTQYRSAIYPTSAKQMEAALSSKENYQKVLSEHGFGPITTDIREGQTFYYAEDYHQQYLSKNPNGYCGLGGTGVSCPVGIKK

hMsrA (myristoylated) = biological target: T6, hMsrA (myristoylated) (Homo sapiens, UniProt Q9UJ68)
T6 sequence (Q9UJ68 23-235): T5 sequence (Q9UJ68 23-235)

Chain of hMsrB2 (Q9Y3D2 whole entry): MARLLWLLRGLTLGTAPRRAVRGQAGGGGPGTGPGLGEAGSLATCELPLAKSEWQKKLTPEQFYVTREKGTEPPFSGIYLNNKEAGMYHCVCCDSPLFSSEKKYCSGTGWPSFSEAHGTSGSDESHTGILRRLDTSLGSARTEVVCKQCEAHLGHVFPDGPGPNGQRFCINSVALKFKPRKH

Row | SMILES | reduction to DABS-Met, 30 min (hMsrB3) | reduction to DABS-Met, 30 min (hMsrB2) | reduction to DABS-Met, 30 min (eMsrB) | reduction to DABS-Met, 30 min (eMsrA) | reduction to DABS-Met, 30 min (bMsrA) | reduction to DABS-Met, 30 min (hMsrA) | reduction to DABS-Met, 30 min (hMsrA (myristoylated))
1 | CN(C)c1ccc(N=Nc2ccc(S(=O)(=O)N[C@@H](CC[S@@+](C)[O-])C(=O)O)cc2)cc1 [DABS-Met-R-(o)] | either DABS-Met-S-(o) or DABS-Met-R-(o), to measure the activity of MsrA and MsrB, respectively | either DABS-Met-S-(o) or DABS-Met-R-(o), to measure the activity of MsrA and MsrB, respectively | either DABS-Met-S-(o) or DABS-Met-R-(o), to measure the activity of MsrA and MsrB, respectively |  |  |  | 
2 | CN(C)c1ccc(N=Nc2ccc(S(=O)(=O)N[C@@H](CC[S@+](C)[O-])C(=O)O)cc2)cc1 [DABS-Met-S-(o)] |  |  |  | uses a synthetic substrate, either DABS-Met-S-(o) or DABS-Met-R-(o), to measure the activity of MsrA | uses a synthetic substrate, either DABS-Met-S-(o) or DABS-Met-R-(o), to measure the activity of MsrA | uses a synthetic substrate, either DABS-Met-S-(o) or DABS-Met-R-(o), to measure the activity of MsrA | uses a synthetic substrate, either DABS-Met-S-(o) or DABS-Met-R-(o), to measure the activity of MsrA
